# In patent US20240091303A1, “BIOMARKER-BASED TREATMENT OF FOCAL SEGMENTAL GLOMERULOSCLEROSIS AND DIABETIC KIDNEY DISEASE” (Goldfinch Bio, Inc., priority 2019, published 2024):
# Legend:
# [1] = test system: DOCA-salt hypertensive rats; experiment: Effects of Compound 3 in DOCA-salt hypertensive rats (albuminuria), eplerenone control; assay type: in vivo, Sprague Dawley rats
# Method: The aim of this study was to evaluate the effects of the TRCPS inhibitor, Compound 3, to attenuate the development and/or progression of albuminuria in deoxycorticosterone acetate (DOCA)-salt hypertensive rats.
# Six to seven weeks old Sprague Dawley rats were unilaterally nephrectomized; after one-week recovery, rats were implanted with a DOCA pellet (45 mg) and provided tap water containing 0.9% NaCl and 0.2% KCl (Day 1) for a 4 weeks treatment. On Day 1, DOCA-salt rats received one daily dose of Compound 3 administered by oral gavage at 30 mg/kg for 4 weeks; control animals for DOCA treatment were administered vehicle or the mineralocorticoid receptor antagonist (MCRA) eplerenone by twice-daily oral gavage at 50 mg/kg. Sham animals, implanted with a silicone-water pellet, were given tap water and received SC administration of the vehicle. Body weight was recorded daily and proteinuria, albuminuria and arterial blood pressure were recorded every week.
# [2] = test system: Rac1 protein in the urine; experiment: Urinary Rac1 analysis in naive rats following treatment with Compound 1; assay type: in vivo, Sprague Dawley rats; settings: 10 mg/kg oral gavage once daily for 7 days
# Method: The aim of this study was to measure the amount of Rac1 protein in the urine of healthy rats treated with Compound 1.
# Six to seven weeks old Sprague Dawley rats were placed in metabolic cage housing for urine collection. Following two 24-hour periods of pre-dose urine collection, received one daily dose of Compound 1 administered by oral gavage at 10 mg/kg for 7 days; control animals were administered vehicle. Urine was collected for 24-hour periods beginning on the day of dosing inception and on days 3 and 6 of dosing.
# Urine samples were concentrated as follows: 20 mL of urine was spun at 1500×g for 5 min to remove cell debris. Samples were concentrated using a Pierce protein concentrator with 10 kDa MWCO (Cat# 88516, Thermo Scientific, USA) and spun at 6000×g for 30 min at 4° C. using rotor JA 14.50 (Beckman Coulter, USA) in an AVANTI-JE centrifuge, (Beckman Coulter). A second centrifugation at 6000×g for 30 min at 4° C. was performed for samples that were concentrated to a volume that was >1 mL, to achieve a volume of <1 mL for all samples. The concentrated urine was collected and stored in −80° C. Next, the samples were analyzed for urinary Rac1 by ELISA (Cat# abx253084, Abbexa Ltd, UK) and urinary creatinine by ELISA (Cat# ab65340, Abcam, USA) following standard procedures according to the manufacturer's instructions. […]
# [3] = test system: Rac1 protein in the urine; experiment: Urinary Rac1 analysis in DOCA-salt hypertensive rats following treatment with Compound 1; assay type: in vivo, Sprague Dawley rats
# Source text: The aim of this study was to measure the amount of Rac1 protein in the urine of DOCA-salt hypertensive rats treated with Compound 1.
# (§1) The DOCA-salt hypertensive rat model is a well-established model of mineralocorticoid hypertension with renal dysfunction leading to an FSGS phenotype, characterized by increased levels of urinary protein and albumin excretion. [Schenk et al., “The pathogenesis of DOCA-salt hypertension,” J. Pharmacol. Toxicol. Methods (May 1992) 27 (3):161-170; Gomez-Sanchez et al., “Mineralocorticoids, salt and high blood pressure,” Steroids (1996) 61:184-188.]
# Six to seven weeks old Sprague Dawley rats were unilaterally nephrectomized. After one-week recovery, rats were implanted with a DOCA pellet (45 mg) and provided tap water containing 0.9% NaCl and 0.2% KCl (Day 1) for a 4 weeks treatment. […] Body weight was recorded daily throughout the study. […] Urine was collected for 24-hour periods beginning on day 17, day 20, day 24 and day 27, and urine protein and albumin were measured using standard methods.
# For Rac1 analysis, urine samples were concentrated as follows: 20 mL of urine was spun at 1500×g for 5 min to remove cell debris. […] Next, the samples were analyzed for urinary Rac1 by ELISA (Cat# abx253084, Abbexa Ltd, UK) and urinary creatinine by ELISA (Cat# ab65340, Abcam, USA) following standard procedures according to the manufacturer's instructions. […]
# [4] = test system: Rac1 protein in the urine; experiment: Urinary Rac1 analysis in healthy human subjects following treatment with Compound 1 (Phase 1, NCT03970122); assay type: in vivo
# Method: The aim of this study was to measure the amount of Rac1 protein in the urine of healthy human subjects treated with Compound 1.
# Healthy human subjects enrolled in a Phase 1 clinical study, “A First-In-Human, Phase 1, Placebo-Controlled Study to Evaluate the Safety, Tolerability, and Pharmacokinetics of Compound 1, a TRPC5 Channel Inhibitor, in Healthy Subjects and Subjects With Renal Impairment,” (NCT03970122) were administered a single, oral dose of either a placebo or 20 mg Compound 1 as a tablet. A urine sample was collected prior to administration of drug, and urine pools were then collected from 0-4 hours, 4-8 hours, 8-12 hours, 12-24 hours, 24-48 hours and 48-72 hours after dosing.
# For Rac1 analysis, urine samples were concentrated as follows: 20 mL of urine was spun at 1500×g for 5 min to remove cell debris. Samples were concentrated using a Pierce protein concentrator with 10 kDa MWCO (Cat# 88516, Thermo Scientific, USA) and spun at 6000×g for 30 min at 4° C. using rotor JA 14.50 (Beckman Coulter, USA) in an AVANTI-JE centrifuge, (Beckman Coulter). A second centrifugation at 6000×g for 30 min at 4° C. was performed for samples that were concentrated to a volume that was >1 mL, to achieve a volume of <1 mL for all samples. The concentrated urine was collected and stored in −80° C. Next, the samples were analyzed for urinary Rac1 by ELISA (Cat# abx253084, Abbexa Ltd, UK) and urinary creatinine by ELISA (Cat# ab65340, Abcam, USA) following standard procedures according to the manufacturer's instructions. The amount of Rac1 in the urine was normalized to the amount of creatinine in the urine to control for the volume of urine produced.
# Additional data was obtained from human subjects that were administered a single, oral dose of either a placebo, 5 mg of Compound 1 as a liquid suspension or 20, 40 or 80 mg of Compound 1 as tablets. A urine sample was collected prior to administration of drug, and urine pools were then collected from 0-4 hours, 4-8 hours, 8-12 hours, 12-24 hours, and for each 24 hour period from day 2 through day 7 after dosing. Each dose level comprised 2 placebo and 8 treated subjects.
# [5] = test system: ZDSD rats; experiment: ZDSD model of diabetic nephropathy, albuminuria; assay type: in vivo, rat
# Source text: The aim of this study was to evaluate the effects of the TRCPS inhibitor, Compound 1, to attenuate the development and/or progression of albuminuria in ZDSD model of diabetic nephropathy (DN).
# The ZDSD model is an established model which recapitulates the major features of diabetes including impaired glucose metabolism, neuropathy, retinopathy and nephropathy [Peterson et al., “Characterization of the ZDSD Rat: A Translational Model for the Study of Metabolic Syndrome and Type 2 Diabetes,” J. Diabetes. Res. (2015), Article ID 487816, 10 pages; Peterson et aL, “The ZDSD rat: a novel model of diabetic nephropathy,” Am. J. Transl. Res. (2017) 9: 4236-4249].
# Male ZDSD rats (Crown Bioscience, Indianapolis, IN., n=79) were maintained on standard rodent chow (Purina 5008) from weaning to 15 weeks of age. A diabetogenic diet (Research Diet D124668) was initiated and maintained for three weeks to synchronize development of hyperglycemia. Diabetogenic diet was replaced with Purina 5008 for remainder of the study. Animals were housed two per cage and maintained on a 12 hour light cycle (0600-1800). Room temperature was monitored daily and maintained at 70-74° F. Food and water were provided ad libitum for duration of the study. […]
# Body weight was recorded weekly. Food consumption was recorded weekly during the treatment phase from week 0 through 12. […]
# [6] = test system: DOCA-salt hypertensive rats; experiment: Effects of Compound 1 in DOCA-salt hypertensive rats (albuminuria); assay type: in vivo, Sprague Dawley rats; settings: for urinary albumin excretion: week 2 to week 4, FIG. 7
# Source text: The aim of this study was to evaluate the effects of the TRCPS inhibitor, Compound 1, to attenuate the development and/or progression of albuminuria in deoxycorticosterone acetate (DOCA)-salt hypertensive rats.
# as §1
# Six to seven weeks old Sprague Dawley rats were unilaterally nephrectomized; after one-week recovery, rats were implanted with a DOCA pellet (45 mg) and provided tap water containing 0.9% NaCl and 0.2% KCl (Day 1) for a 4 weeks treatment. On Day 1, DOCA-salt rats received one daily dose of Compound 1 administered by oral gavage at 3 mg/kg or 10 mg/kg for 4 weeks; control animals for DOCA treatment were administered vehicle. Sham animals, implanted with a silicone-water pellet, were given tap water and received oral administration of the vehicle. Body weight was recorded daily and proteinuria, albuminuria and arterial blood pressure were recorded every week.
# [7] = test system: COL4A4 knockout mice; experiment: Effects of Compound 1 in COL4A4 knockout mice (Alport model); assay type: in vivo, mouse; settings: 3 mg/kg or 10 mg/kg oral gavage once daily for 4 weeks, FIG. 8
# Source text: The aim of this study was to evaluate the effects of the TRCPS inhibitor, Compound 1, to attenuate the development and/or progression of albuminuria in […] knockout mice.
# The COL4A4 knockout mouse model is a well-established model of Alport disease, characterized by increased levels of urinary protein and albumin excretion. [Korstanje et al., “A mouse Col4a4 mutation causing Alport glomerulosclerosis with abnormal collagen α3α4α5(IV) trimers,” Kidney Int. (2014) 85:1461-1468].
# Four to five weeks old COL4A4 knockout mice were received one daily dose of Compound 1 administered by oral gavage at 3 mg/kg or 10 mg/kg for 4 weeks; control animals were administered vehicle. Body weight was recorded daily and urinary protein and creatinine were recorded every week, and the ratio of urine protein to creatinine (UPCR) was calculated.
# [8] = test system: DOCA-salt hypertensive rats; experiment: Effects of cyclosporine A and tacrolimus in DOCA-salt hypertensive rats (albuminuria); assay type: in vivo, Sprague Dawley rats; set-up: urinary albumin excretion: dose or concentration left out as unconfirmed
# Method: The DOCA-salt hypertensive rat model is a well-established model of mineralocorticoid hypertension with renal dysfunction leading to an FSGS phenotype, characterized by increased levels of urinary protein and albumin excretion. [Schenk et al., “The pathogenesis of DOCA-salt hypertension,” J. Pharmacol. Toxicol.
# Six to seven weeks old Sprague Dawley rats were unilaterally nephrectomized; after one-week recovery, rats were implanted with a DOCA pellet (45 mg) and provided tap water containing 0.9% NaCl and 0.2% KCl (Day 1) for a 3 weeks treatment. […] Sham animals, implanted with a silicone-water pellet, were given tap water and received administration of the vehicle. Proteinuria and albuminuria were recorded every week, and body weight was recorded daily.
smiles,measurement,setting,value
COC(=O)[C@@H]1CC2=CC(=O)CC[C@]2(C)[C@@]23O[C@@H]2C[C@@]2(C)[C@@H](CC[C@@]24CCC(=O)O4)[C@H]13 [eplerenone],body weight,[1]; DOCA vs DOCA plus Compound 3 (30 mg/kg oral daily) or eplerenone (50 mg/kg oral twice daily),no significant difference
same,urinary albumin excretion,"[1]; eplerenone 50 mg/kg twice-daily oral gavage, week 4 vs DOCA-vehicle (p<0.05), FIG. 10",significantly attenuated urinary albumin excretion
O=c1[nH]ncc(N2CCc3c(ncnc3Oc3ccc(F)cc3C(F)(F)F)C2)c1Cl [Compound 1],adverse effects,[2],No adverse effects were observed
same,urinary Rac1 levels (Rac1 normalized to creatinine),"[2]; vs pre-dose levels, significance at day 4 (p<0.01), FIG. 2",reduced urinary Rac1 levels
same,adverse effects,[3]; 10 mg/kg oral gavage once daily for 7 days from day 21,No adverse effects were observed
same,urinary Rac1 levels (Rac1 normalized to creatinine),"[3]; 10 mg/kg oral gavage once daily for 7 days from day 21, vs pre-dose levels, significance day 25 (p<0.01), FIG. 3",reduced urinary Rac1 levels
same,urinary Rac1 levels (Rac1 normalized to creatinine),"[4]; healthy humans, single oral 20 mg tablet, vs pre-dose, significance by 8-12 hours after dosing (p<0.05), FIG. 4",reduced urinary Rac1 levels
same,time urinary Rac1 levels remained reduced,"[4]; humans, single 40 mg oral dose",up to 4 days
same,time urinary Rac1 levels remained reduced,"[4]; humans, single 80 mg oral dose",at least 7 days
same,urinary Rac1 levels,"[4]; humans, single oral dose 5 mg suspension or 20, 40, 80 mg tablets, significance by 8-12 hours with 40 mg and 80 mg doses vs pre-dose (p<0.05), FIG. 4B",reduced urinary Rac1 levels
same,body weight,"[5]; 3 mg/kg and 10 mg/kg oral gavage daily for 12 weeks, vs vehicle group, last two weeks of study",increase in body weight
same,urinary albumin excretion,"[5]; 3 or 10 mg/kg/d oral gavage 12 weeks, week 6 to week 12, significance at weeks 10 to 12 vs vehicle (p<0.001), FIG. 6",attenuated urinary albumin excretion
same,urinary albumin excretion,"[6]; 3 mg/kg oral daily, significant at week 3 vs DOCA-vehicle (p<0.05)",attenuated urinary albumin excretion
same,urinary albumin excretion,"[6]; 10 mg/kg oral daily, vs DOCA-vehicle, p<0.05 week 2, p<0.001 weeks 3 and 4",attenuated urinary albumin excretion
same,body weight,"[6]; DOCA vs DOCA and Compound 1, 3 or 10 mg/kg oral daily 4 weeks",no significant difference
same,adverse effects,"[6]; DOCA-salt rats, 3 or 10 mg/kg oral gavage once daily for 4 weeks",No adverse effects were observed
same,urinary protein to creatinine ratio (UPCR),[7],no effect
"C=CC[C@@H]1/C=C(\C)C[C@H](C)C[C@H](OC)[C@H]2O[C@@](O)(C(=O)C(=O)N3CCCC[C@H]3C(=O)O[C@H](/C(C)=C/[C@@H]3CC[C@@H](O)[C@H](OC)C3)[C@H](C)[C@@H](O)CC1=O)[C@H](C)C[C@@H]2OC [tacrolimus, Tacrolimus]",body weight,"[8]; DOCA and tacrolimus 0.3 mg/kg oral gavage daily, first two weeks",significant loss of body weight
same,urinary albumin excretion,"[8]; tacrolimus 0.3/0.1 oral daily, weeks 2 and 3 vs DOCA-vehicle (p<0.05), FIG. 12",significantly attenuated urinary albumin excretion
same,body weight after dose adjustment,[8]; tacrolimus dose adjusted from 0.3 mg/kg down to 0.1 mg/kg after two weeks of dosing,reversed the weight loss
